In patent US10087185B2 (Janssen Pharmaceutica NV, priority 2016, dated 2018):

biological target: TARP γ8 dependent AMPA receptor (GRIA1o-CACNG8 fusion construct) (Homo sapiens (Human), UniProt P42261+Q8WXS5); experiment: Calcium flux assay (FLIPR), inhibition of glutamate response of GluA1o-γ8 channel; assay type: cell-based; conditions: HEK293 cells stably expressing GRIA1o-CACNG8 fusion; calcium flux after 15 μM glutamate; negative log of the IC50 in molar
Description: This assay was used to test compounds for their ability to inhibit TARP γ8 dependent AMPA receptor activity. The AMPA receptor is a non-selective cation channel activated by glutamate. […] But, this desensitization is incomplete, and a substantial steady-state current remains in the sustained presence of glutamate (Cho et al. (2007). “Two families of TARP isoforms that have distinct effects on the kinetic properties of AMPA receptors and synaptic currents.” Neuron 55(6): 890-904).
An in vitro assay was used to determine the potency of test compounds as inhibitors of the glutamate response of the channel formed by GluA10-γ8. To ensure a 1:1 stoichiometry of GluA1o and γ8 subunits in the expressed channel, a fusion of the cDNAs for GRIA1o and CACNG8 was used. Following Shi et al (2009) “The stoichiometry of AMPA receptors and TARPs varies by neuronal cell type.” Neuron 62(5): 633-640), the C-terminus of the cDNA for GRIA1o was fused to the N-terminus of the cDNA for γ8. The linker sequence was […]. Channels expressed with this construct appear to have similar properties to channels formed by co-expression of GRIA1o with an excess of CACNG8 (Shi et al. 2009). A clonal cell line in HEK293 cells stably expressing this construct, with a geneticin selection marker, was generated for use in this assay.
Cell expressing the GRIA1o-CACNG8 fusion construct were grown in a monolayer in 96- or 384-well microtiter plates. They were washed with assay buffer (135 mM NaCl, 4 mM KCl, 3 mM CaCl2, 1 mM MgCl2, 5 mM glucose, 10 mM HEPES, pH 7.4, 300 mOs) using a Biotek EL405 plate washer. The cells were then loaded with a calcium-sensitive dye (Calcium-5 or Calcium-6, Molecular Devices) and the test compounds at a range of concentrations. Calcium flux following the addition of 15 μM glutamate was monitored using a Molecular Devices FLIPR Tetra.
The fluorescence in each well was normalized to the fluorescence of negative and positive control wells. The negative control wells had no added compounds, and the positive control wells had been incubated with 10 μM CP465022 (a non-subtype-selective AMPA receptor antagonist) (Lazzaro et al. (2002). “Functional characterization of CP-465,022, a selective, noncompetitive AMPA receptor antagonist.” Neuropharmacology 42(2): 143-153). The responses to glutamate as functions of the test compound concentrations were fitted to a four-parameter logistic function. The fitted parameter corresponding to the midpoint was taken to be the potency of inhibition of the compound. The data in Table 4 below illustrates the observed potency for the compounds described herein. pIC50 refers to the negative log of the IC50 in molar.

TARP γ8 dependent AMPA receptor (GRIA1o-CACNG8 fusion construct), sequence (P42261 other isoform, or with tags, fused parts or gaps): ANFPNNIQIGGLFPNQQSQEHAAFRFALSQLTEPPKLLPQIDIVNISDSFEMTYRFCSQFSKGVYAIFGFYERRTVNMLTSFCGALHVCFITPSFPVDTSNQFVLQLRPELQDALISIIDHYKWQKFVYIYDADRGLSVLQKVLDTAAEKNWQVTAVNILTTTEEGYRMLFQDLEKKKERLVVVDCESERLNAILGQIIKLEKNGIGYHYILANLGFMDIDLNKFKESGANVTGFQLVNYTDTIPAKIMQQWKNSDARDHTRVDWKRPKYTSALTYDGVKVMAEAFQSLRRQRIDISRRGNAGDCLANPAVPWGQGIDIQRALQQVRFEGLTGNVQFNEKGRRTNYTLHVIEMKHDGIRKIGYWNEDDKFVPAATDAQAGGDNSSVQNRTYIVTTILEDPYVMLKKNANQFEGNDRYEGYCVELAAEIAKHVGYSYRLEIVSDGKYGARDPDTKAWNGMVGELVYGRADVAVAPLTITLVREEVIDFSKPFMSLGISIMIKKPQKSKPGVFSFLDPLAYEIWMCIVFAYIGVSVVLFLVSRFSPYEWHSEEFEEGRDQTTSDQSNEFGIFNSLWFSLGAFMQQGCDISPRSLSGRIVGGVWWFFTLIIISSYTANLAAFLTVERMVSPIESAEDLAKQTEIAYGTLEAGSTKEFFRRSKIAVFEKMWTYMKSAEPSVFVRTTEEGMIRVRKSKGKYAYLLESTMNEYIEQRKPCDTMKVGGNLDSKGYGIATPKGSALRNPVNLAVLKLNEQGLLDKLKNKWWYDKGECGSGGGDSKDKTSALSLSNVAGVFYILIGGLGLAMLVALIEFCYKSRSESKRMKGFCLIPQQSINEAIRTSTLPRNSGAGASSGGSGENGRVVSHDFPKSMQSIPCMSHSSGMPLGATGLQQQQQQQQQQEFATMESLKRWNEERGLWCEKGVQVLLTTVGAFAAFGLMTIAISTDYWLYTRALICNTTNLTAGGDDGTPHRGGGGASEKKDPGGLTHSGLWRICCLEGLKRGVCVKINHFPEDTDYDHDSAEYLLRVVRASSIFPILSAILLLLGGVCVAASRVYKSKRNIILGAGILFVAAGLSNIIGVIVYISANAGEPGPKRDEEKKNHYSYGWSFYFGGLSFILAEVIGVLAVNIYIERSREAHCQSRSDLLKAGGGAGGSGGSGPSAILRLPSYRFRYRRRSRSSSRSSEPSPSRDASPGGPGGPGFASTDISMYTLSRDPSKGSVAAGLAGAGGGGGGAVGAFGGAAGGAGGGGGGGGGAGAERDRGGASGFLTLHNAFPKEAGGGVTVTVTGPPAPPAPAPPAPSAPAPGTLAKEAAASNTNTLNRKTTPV

Row | IC50 [pM] | pIC50 | Structure (SMILES)
1 | 15.8 |  | FC(F)(F)c1cc2ccc(C(F)(F)F)c(-c3cc(Cl)c4[nH]ncc4c3)n2n1 [Example 63, 5-(2,6-Bis(trifluoromethyl)pyrazolo[1,5-a]pyridin-7-yl)-7-chloro-1H-indazole]
2 | 15.8 |  | Cc1cc(-c2c(C(F)(F)F)ccc3cc(C(F)(F)F)nn23)cc2cn[nH]c12 [Example 64, 5-(2,6-Bis(trifluoromethyl)pyrazolo[1,5-a]pyridin-7-yl)-7-methyl-1H-indazole]
3 | 15.8 |  | Cc1cc(-c2c(C(F)(F)F)ccc3cc(C(F)(F)F)nn23)cc2c1NC(=O)C2 [Example 65, 5-(2,6-Bis(trifluoromethyl)pyrazolo[1,5-a]pyridin-7-yl)-7-methylindolin-2-one]
4 | 12.6 |  | O=C1Cc2cc(-c3c(C(F)(F)F)ccc4cc(C(F)(F)F)nn34)cc(Cl)c2N1 [Example 66, 5-(2,6-Bis(trifluoromethyl)pyrazolo[1,5-a]pyridin-7-yl)-7-chloroindolin-2-one]
5 | 50.1 |  | Cc1cc(-c2c(C(F)(F)F)ccc3cc(C4CC4)nn23)cc2c1NC(=O)C2 [Example 67, 5-(2-Cyclopropyl-6-(trifluoromethyl)pyrazolo[1,5-a]pyridin-7-yl)-7-methylindolin-2-one]
6 | 20 |  | O=C1Cc2cc(-c3c(C(F)(F)F)ccc4cc(C5CC5)nn34)cc(Cl)c2N1 [Example 68, 5-(2-Cyclopropyl-6-(trifluoromethyl)pyrazolo[1,5-a]pyridin-7-yl)-7-chloroindolin-2-one]
7 | 50.1 |  | Cc1cc(-c2c(C(F)(F)F)ccc3cc(C4CC4)nn23)cc2cn[nH]c12 [Example 69, 5-(2-Cyclopropyl-6-(trifluoromethyl)pyrazolo[1,5-a]pyridin-7-yl)-7-methyl-1H-indazole]
8 | 63.1 |  | FC(F)(F)c1ccc2cc(C3CC3)nn2c1-c1cc(Cl)c2[nH]ncc2c1 [Example 70, 7-Chloro-5-(2-cyclopropyl-6-(trifluoromethyl)pyrazolo[1,5-a]pyridin-7-yl)-1H-indazole]
9 | 15.8 |  | Cc1cc(-c2c(C(F)(F)F)ccc3cc(C(C)C)nn23)cc2c1NC(=O)C2 [Example 71, 5-(2-Isopropyl-6-(trifluoromethyl)pyrazolo[1,5-a]pyridin-7-yl)-7-methylindolin-2-one]
10 | 12.6 |  | CC(C)c1cc2ccc(C(F)(F)F)c(-c3cc(Cl)c4c(c3)CC(=O)N4)n2n1 [Example 72, 5-(2-Isopropyl-6-(trifluoromethyl)pyrazolo[1,5-a]pyridin-7-yl)-7-chloroindolin-2-one]
11 | 10 |  | CC(C)c1cc2ccc(C(F)(F)F)c(-c3cc(Cl)c4[nH]ncc4c3)n2n1 [Example 73, 7-Chloro-5-(2-isopropyl-6-(trifluoromethyl)pyrazolo[1,5-a]pyridin-7-yl)-1H-indazole]
12 | 79.4 |  | Cc1cc(-c2c(C(F)(F)F)ccc3cc(C(C)C)nn23)cc2cn[nH]c12 [Example 74, 5-(2-Isopropyl-6-(trifluoromethyl)pyrazolo[1,5-a]pyridin-7-yl)-7-methyl-1H-indazole]
13 | 126 |  | Cc1cc(C(F)(F)F)c(-c2cc(Cl)c3c(c2)CC(=O)N3)n2nc(C3CC3)nc12 [Example 75, 7-Chloro-5-(2-cyclopropyl-8-methyl-6-(trifluoromethyl)-[1,2,4]triazolo[1,5-a]pyridin-5-yl)indolin-2-one]
14 | 158 |  | Cc1cc(-c2c(C(F)(F)F)cc(C)c3nc(C4CC4)nn23)cc2cn[nH]c12 [Example 76, 2-Cyclopropyl-8-methyl-5-(7-methyl-1H-indazol-5-yl)-6-(trifluoromethyl)-[1,2,4]triazolo[1,5-a]pyridine]
15 | 251 |  | Cc1cc(C(F)F)c(-c2cc(Cl)c3[nH]ncc3c2)n2nc(C(F)(F)F)nc12 [Example 77, 5-(7-Chloro-1H-indazol-5-yl)-6-(difluoromethyl)-8-methyl-2-(trifluoromethyl)-[1,2,4]triazolo[1,5-a]pyridine]
16 | 126 |  | Cc1cc(C(F)(F)F)c(-c2cc(Cl)c3[nH]ncc3c2)n2nc(C(F)F)nc12 [Example 78, 5-(7-Chloro-1H-indazol-5-yl)-2-(difluoromethyl)-8-methyl-6-(trifluoromethyl)-[1,2,4]triazolo[1,5-a]pyridine]
17 | 398 |  | Cc1cc(-c2c(C(F)(F)F)cc(C)c3nc(C(F)F)nn23)cc2cn[nH]c12 [Example 79, 2-(Difluoromethyl)-8-methyl-5-(7-methyl-1H-indazol-5-yl)-6-(trifluoromethyl)-[1,2,4]triazolo[1,5-a]pyridine]
18 | 158 |  | CCc1cc(C(F)(F)F)c(-c2cc(Cl)c3[nH]ncc3c2)n2nc(C3CC3)nc12 [Example 80, 5-(7-Chloro-1H-indazol-5-yl)-2-cyclopropyl-8-ethyl-6-(trifluoromethyl)-[1,2,4]triazolo[1,5-a]pyridine]
19 | 501 |  | CCc1cc(C(F)(F)F)c(-c2cc(C)c3[nH]ncc3c2)n2nc(C3CC3)nc12 [Example 81, 2-Cyclopropyl-8-ethyl-5-(7-methyl-1H-indazol-5-yl)-6-(trifluoromethyl)-[1,2,4]triazolo[1,5-a]pyridine]
20 | 316 |  | CCc1cc(C(F)(F)F)c(-c2cc(C)c3c(c2)CC(=O)N3)n2nc(C3CC3)nc12 [Example 82, 5-(2-Cyclopropyl-8-ethyl-6-(trifluoromethyl)-[1,2,4]triazolo[1,5-a]pyridin-5-yl)-7-methylindolin-2-one]
21 | 200 |  | CCCc1nc2c(C)cc(C(F)(F)F)c(-c3cc(Cl)c4[nH]ncc4c3)n2n1 [Example 83, 5-(7-Chloro-1H-indazol-5-yl)-8-methyl-2-propyl-6-(trifluoromethyl)-[1,2,4]triazolo[1,5-a]pyridine]
22 | 1000 |  | CCCc1nc2c(C)cc(C(F)(F)F)c(-c3cc(C)c4[nH]ncc4c3)n2n1 [Example 84, 8-Methyl-5-(7-methyl-1H-indazol-5-yl)-2-propyl-6-(trifluoromethyl)-[1,2,4]triazolo[1,5-a]pyridine]
23 | 316 |  | CCCc1nc2c(C)cc(C(F)(F)F)c(-c3cc(C)c4c(c3)CC(=O)N4)n2n1 [Example 85, 7-Methyl-5-(8-methyl-2-propyl-6-(trifluoromethyl)-[1,2,4]triazolo[1,5-a]pyridin-5-yl)indolin-2-one]
24 |  | 9.4 | Cc1cc(-c2c(C(F)(F)F)cc(C)c3nc(C(F)F)nn23)cc2cn[nH]c12 [Example 86, 2-(Difluoromethyl)-8-methyl-5-(7-methyl-1H-indazol-5-yl)-6-(trifluoromethyl)-[1,2,4]triazolo[1,5-a]pyridine]
25 | 398 |  | CCc1cc(C(F)(F)F)c(-c2cc(Cl)c3[nH]ncc3c2)n2nc(C(F)F)nc12 [Example 87, 5-(7-Chloro-1H-indazol-5-yl)-2-(difluoromethyl)-8-ethyl-6-(trifluoromethyl)-[1,2,4]triazolo[1,5-a]pyridine]
26 | 1580 |  | CCc1cc(C(F)(F)F)c(-c2cc(C)c3[nH]ncc3c2)n2nc(C(F)F)nc12 [Example 88, 2-(Difluoromethyl)-8-ethyl-5-(7-methyl-1H-indazol-5-yl)-6-(trifluoromethyl)-[1,2,4]triazolo[1,5-a]pyridine]
27 | 794 |  | CCc1nc2c(CC)cc(C(F)(F)F)c(-c3cc(Cl)c4[nH]ncc4c3)n2n1 [Example 89, 5-(7-Chloro-1H-indazol-5-yl)-2,8-diethyl-6-(trifluoromethyl)-[1,2,4]triazolo[1,5-a]pyridine]
